Experimental data reported in patent US20260053834A1, “COVALENT MODIFIERS OF AKT1 AND USES THEREOF” (Terremoto Biosciences, Inc., priority 2023, published 2026).

How the values were obtained:
[1] = tested on: LAPC4 prostate cancer cells, which express the AKT1 E17K allele; test: Antiproliferative effects in LAPC4 cells (CellTiter Glo, 72 h); format: cell-based; conditions: Homo sapiens, LAPC4, 72 h, read-out: LAPC4 proliferation IC50: GeoMean IC50
In short: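 IC50 values come from Hill-equation fitting of luminescence (cellular ATP) after 72 h compound exposure. Treated wells held 1,000 cells each, with compound delivered as DMSO dilutions. Culture medium was IMDM plus 12% FBS.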

[2] = target: T1, AKT2 (Homo sapiens, UniProt P31751); test: Live cell target engagement by NanoBRET competitive probe displacement, AKT2; format: binding; conditions: transfected HEK293 cells, 2 h at 37° C., read-out: AKT2 IC50: GeoMean IC50
T1 construct: expressed in transfected cells; host or cells: HEK293
T1 sequence (P31751 whole entry): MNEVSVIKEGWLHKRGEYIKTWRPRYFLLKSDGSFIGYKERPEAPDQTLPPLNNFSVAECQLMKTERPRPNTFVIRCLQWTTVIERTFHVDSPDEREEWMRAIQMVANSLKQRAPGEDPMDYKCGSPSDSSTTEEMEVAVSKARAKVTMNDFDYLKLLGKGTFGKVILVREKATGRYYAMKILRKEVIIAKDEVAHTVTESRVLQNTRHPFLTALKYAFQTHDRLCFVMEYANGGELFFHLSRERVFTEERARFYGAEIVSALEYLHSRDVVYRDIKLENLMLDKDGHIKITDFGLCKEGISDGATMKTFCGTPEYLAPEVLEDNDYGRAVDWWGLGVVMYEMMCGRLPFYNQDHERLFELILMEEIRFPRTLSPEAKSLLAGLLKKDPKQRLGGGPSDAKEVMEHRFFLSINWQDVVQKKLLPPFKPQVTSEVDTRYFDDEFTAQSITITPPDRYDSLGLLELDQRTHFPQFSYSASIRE

[3] = target: T2, AKT1 E17K (Homo sapiens, UniProt P31749, E17K); test: Live cell target engagement by NanoBRET competitive probe displacement, AKT1 E17K; format: binding; conditions: transfected HEK293 cells, 2 h at 37° C., read-out: AKT1 E17K IC50: GeoMean IC50
T2 construct: expressed in transfected cells; host or cells: HEK293
T2 sequence (P31749 whole entry E17K): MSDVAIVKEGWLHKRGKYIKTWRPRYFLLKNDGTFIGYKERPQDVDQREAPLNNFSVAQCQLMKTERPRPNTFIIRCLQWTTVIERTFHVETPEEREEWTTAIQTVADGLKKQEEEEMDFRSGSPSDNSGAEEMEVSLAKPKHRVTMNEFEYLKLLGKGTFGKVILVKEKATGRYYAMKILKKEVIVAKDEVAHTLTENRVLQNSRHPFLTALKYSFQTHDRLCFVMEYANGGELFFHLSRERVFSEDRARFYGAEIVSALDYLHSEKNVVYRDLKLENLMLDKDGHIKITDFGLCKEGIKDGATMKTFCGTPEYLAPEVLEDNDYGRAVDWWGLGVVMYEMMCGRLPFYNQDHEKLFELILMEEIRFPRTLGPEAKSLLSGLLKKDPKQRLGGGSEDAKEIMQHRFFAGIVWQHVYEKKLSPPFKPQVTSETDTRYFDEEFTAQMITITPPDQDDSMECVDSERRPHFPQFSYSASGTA

[4] = target: T3, AKT1 WT (Homo sapiens, UniProt P31749); test: Live cell target engagement by NanoBRET competitive probe displacement, AKT1 WT; format: binding; conditions: transfected HEK293 cells, 2 h at 37° C., read-out: AKT1 WT IC50: GeoMean IC50
T3 construct: expressed in transfected cells; host or cells: HEK293
T3 sequence (P31749 whole entry): as the sequence (P31749 whole entry E17K) above, with K17E counted along it

| IC50 [1] | IC50 [2] | IC50 [3] | IC50 [4] | SMILES |
| --- | --- | --- | --- | --- |
| 10 to 100 nM | < 10 nM | < 10 nM | < 10 nM | Nc1ncccc1-c1nc2ccc(-c3ccccc3)nc2n1-c1ccc2c(c1)CC[C@@H]2NC(=O)c1cc(C=O)c2[nH]cnc2c1 [Example 162, N-[(1S)-5-[2-(2-aminopyridin-3-yl)-5-phenylimidazo[4,5-b]pyridin-3-yl]-2,3-dihydro-1H-inden-1-yl]-7-formyl-1H-1,3-benzodiazole-5-carboxamide] |
| ≥ 2000 nM | ≥ 2000 nM | 10 to 100 nM | 10 to 100 nM | Nc1ncc(F)cc1-c1nc2ccc(-n3cccn3)nc2n1-c1ccc2c(c1)CC[C@@H]2NC(=O)c1ccc(O)c(C=O)c1 [Example 163, (S)—N-(5-(2-(2-amino-5-fluoropyridin-3-yl)-5-(1H-pyrazol-1-yl)-3H-imidazo[4,5-b]pyridin-3-yl)-2,3-dihydro-1H-inden-1-yl)-3-formyl-4-hydroxybenzamide] |
| 100 to 2000 nM | 100 to 2000 nM | 10 to 100 nM | 10 to 100 nM | CN1CC(n2ccc(-c3ccc4nc(-c5cccnc5N)n(-c5ccc6c(c5)CC[C@@H]6NC(=O)c5ccc(O)c(C=O)c5)c4n3)n2)C1 [Example 165, (S)—N-(5-(2-(2-aminopyridin-3-yl)-5-(1-(1-methylazetidin-3-yl)-1H-pyrazol-3-yl)-3H-imidazo[4,5-b]pyridin-3-yl)-2,3-dihydro-1H-inden-1-yl)-3-formyl-4-hydroxybenzamide] |
| ≥ 2000 nM | ≥ 2000 nM | ≥ 2000 nM | ≥ 2000 nM | Cc1ccc(-c2nc3ccc(-n4cccn4)nc3n2-c2ccc3c(c2)CC[C@@H]3NC(=O)c2ccc(O)c(C=O)c2)c(N)n1 [Example 166, (S)—N-(5-(2-(2-amino-6-methylpyridin-3-yl)-5-(1H-pyrazol-1-yl)-3H-imidazo[4,5-b]pyridin-3-yl)-2,3-dihydro-1H-inden-1-yl)-3-formyl-4-hydroxybenzamide] |
| ≥ 2000 nM | 100 to 2000 nM | 100 to 2000 nM | 100 to 2000 nM | Cc1cnc(N)c(-c2nc3ccc(-n4cccn4)nc3n2-c2ccc3c(c2)CC[C@@H]3NC(=O)c2ccc(O)c(C=O)c2)c1 [Example 167, (S)—N-(5-(2-(2-amino-5-methylpyridin-3-yl)-5-(1H-pyrazol-1-yl)-3H-imidazo[4,5-b]pyridin-3-yl)-2,3-dihydro-1H-inden-1-yl)-3-formyl-4-hydroxybenzamide] |
| 100 to 2000 nM | 100 to 2000 nM | 10 to 100 nM | 10 to 100 nM | Nc1ncccc1-c1nc2ccc(-n3cccn3)nc2n1-c1ccc2c(c1)CC[C@@H]2NC(=O)c1cc(C=O)c(O)c(OC(F)F)c1 [Example 168, (S)—N-(5-(2-(2-aminopyridin-3-yl)-5-(1H-pyrazol-1-yl)-3H-imidazo[4,5-b]pyridin-3-yl)-2,3-dihydro-1H-inden-1-yl)-3-(difluoromethoxy)-5-formyl-4-hydroxybenzamide] |
| 100 to 2000 nM | ≥ 2000 nM | ≥ 2000 nM | ≥ 2000 nM | Nc1ncccc1-c1nc2ccc(-n3cccn3)nc2n1-c1ccc2c(c1)CC[C@@H]2NC(=O)c1cc(C=O)c(O)c2nccn12 [Example 169, N-[(1S)-5-[2-(2-aminopyridin-3-yl)-5-(pyrazol-1-yl)imidazo[4,5-b]pyridin-3-yl]-2,3-dihydro-1H-inden-1-yl]-7-formyl-8-hydroxyimidazo[1,2-a]pyridine-5-carboxamide] |
| 10 to 100 nM | 100 to 2000 nM | < 10 nM | < 10 nM | Cn1c(=O)[nH]c2c(C=O)cc(C(=O)N[C@H]3CCc4cc(-n5c(-c6cccnc6N)nc6ccc(-n7cccn7)nc65)ccc43)cc21 [Example 170, (S)—N-(5-(2-(2-aminopyridin-3-yl)-5-(1H-pyrazol-1-yl)-3H-imidazo[4,5-b]pyridin-3-yl)-2,3-dihydro-1H-inden-1-yl)-7-formyl-3-methyl-2-oxo-2,3-dihydro-1H-benzo[d]imidazole-5-carboxamide] |

The remaining lines, values behind:

| SMILES | IC50 [1] | IC50 [2] | IC50 [3] | IC50 [4] |
| --- | --- | --- | --- | --- |
| C#Cc1ccc(C(=O)N[C@H]2CCc3cc(-n4c(-c5cccnc5N)nc5ccc(-n6cccn6)nc54)ccc32)cc1C=O [Example 155, N-[(1S)-5-[2-(2-aminopyridin-3-yl)-5-(pyrazol-1-yl)imidazo[4,5-b]pyridin-3-yl]-2,3-dihydro-1H-inden-1-yl]-4-ethynyl-3-formylbenzamide] | ≥ 2000 nM | 10 to 100 nM | 10 to 100 nM | 10 to 100 nM |
| Nc1ncccc1-c1nc2ccc(-n3ccc(N4CCC4)n3)nc2n1-c1ccc2c(c1)CC[C@@H]2NC(=O)c1ccc(O)c(C=O)c1 [Example 156, (S)—N-(5-(2-(2-aminopyridin-3-yl)-5-(3-(azetidin-1-yl)-1H-pyrazol-1-yl)-3H-imidazo[4,5-b]pyridin-3-yl)-2,3-dihydro-1H-inden-1-yl)-3-formyl-4-hydroxybenzamide] | < 10 nM | 10 to 100 nM | 10 to 100 nM | 10 to 100 nM |
| Nc1ncccc1-c1nc2ccc(-c3ccn(C(F)F)n3)nc2n1-c1ccc2c(c1)CC[C@@H]2NC(=O)c1cc(C=O)c(O)c(F)c1F [Example 157, (S)—N-(5-(2-(2-aminopyridin-3-yl)-5-(1-(difluoromethyl)-1H-pyrazol-3-yl)-3H-imidazo[4,5-b]pyridin-3-yl)-2,3-dihydro-1H-inden-1-yl)-2,3-difluoro-5-formyl-4-hydroxybenzamide] | 10 to 100 nM | 10 to 100 nM | < 10 nM | 10 to 100 nM |
| Nc1ncccc1-c1nc2ccc(-c3ccn(C(F)F)n3)nc2n1-c1ccc2c(c1)CC[C@@H]2NC(=O)c1cc(C=O)c(O)cc1F [Example 158, N-[(1S)-5-[2-(2-aminopyridin-3-yl)-5-[1-(difluoromethyl)pyrazol-3-yl]imidazo[4,5-b]pyridin-3-yl]-2,3-dihydro-1H-inden-1-yl]-2-fluoro-5-formyl-4-hydroxybenzamide] | 10 to 100 nM | 100 to 2000 nM | 10 to 100 nM | 10 to 100 nM |
| Nc1ncccc1-c1nc2ccc(-n3cccn3)nc2n1-c1ccc2c(c1)CC[C@@H]2NC(=O)c1cc(C=O)c(O)cc1O [Example 159, (S)—N-(5-(2-(2-aminopyridin-3-yl)-5-(1H-pyrazol-1-yl)-3H-imidazo[4,5-b]pyridin-3-yl)-2,3-dihydro-1H-inden-1-yl)-5-formyl-2,4-dihydroxybenzamide] | 100 to 2000 nM | 100 to 2000 nM | 10 to 100 nM | 10 to 100 nM |
| Nc1ncccc1-c1nc2ccc(-n3cc4c(n3)CNC4)nc2n1-c1ccc2c(c1)CC[C@@H]2NC(=O)c1ccc(O)c(C=O)c1 [Example 160, N-[(1S)-5-[2-(2-aminopyridin-3-yl)-5-{4H,5H,6H-pyrrolo[3,4-c]pyrazol-2-yl}imidazo[4,5-b]pyridin-3-yl]-2,3-dihydro-1H-inden-1-yl]-3-formyl-4-hydroxybenzamide] | ≥ 2000 nM | 100 to 2000 nM | 100 to 2000 nM | 100 to 2000 nM |
| Nc1ncccc1-c1nc2ccc(-c3ccccc3)nc2n1-c1ccc2c(c1)CC[C@@H]2NC(=O)c1ccc(B(O)O)c(C=O)c1 [Example 161, (S)-(4-((5-(2-(2-aminopyridin-3-yl)-5-phenyl-3H-imidazo[4,5-b]pyridin-3-yl)-2,3-dihydro-1H-inden-1-yl)carbamoyl)-2-formylphenyl)boronic acid] | 100 to 2000 nM | 100 to 2000 nM | 10 to 100 nM | 10 to 100 nM |
